Test results published in patent US20100041089A1, “IMPROVED METHOD FOR DETECTING CHEMICAL […]” (priority 2006, published 2010).

Test system: yeast genes (expressed mRNA)
Assay: DNA chip measurement of expressed mRNA of yeast genes after culture with a toxic chemical substance
Assay type: cell-based, Saccharomyces cerevisiae S288C
Protocol: Yeast (Saccharomyces cerevisiae S288C (a SUC2mal mel gap2 CUP1)) were cultured at 25° C. on YPD medium (yeast extract 1%, polypeptone 2%, glucose 2%). One of toxic chemical substances was added to the cell at logarithmic growth phase, and the cell was further cultured for two hours. Cell was cultured without any chemical substance in the same condition, and was used as a control. Concentrations of the chemical substances were defined to inhibit the growth of the yeast but not lead to death.
After the completion of cultivation, the culture was centrifuged to collect the cells. To the cells, sodium acetate buffer (50 mM sodium acetate, 10 mM EDTA, 1% SDS) was added, and the mixture was shaken at 65° C. for five minutes, followed by returning to room temperature, and obtaining the supernatant, which procedure was repeated two times. To the supernatant, ½ amount of a solution of phenol/chloroform (1:1) was added, and the mixture was centrifuged to give a supernatant, an equal amount of chloroform was added, and the mixture was centrifuged to give a supernatant. To the supernatant, an equal amount of isopropanol containing 0.3 M sodium acetate was added, and the mixture was allowed to stand at room temperature for 30 minutes, after which the mixture was centrifuged to give sediment of the whole RNAs. Seventy % ethanol was added to the sediment, and the mixture was again centrifuged to give sediment, which was then dried and dissolved in water. mRNA was isolated from the whole RNAs as followings. In view of the fact that a poly A chain is attached to the 3′ terminus of mRNA, a polynucleotide having a poly T structure which was immobilized on the surface of latex beads was used to trap the mRNA, and then the mRNA was washed and eluted with spine column (Oligotex-dT30<Super>mRNA Purification Kit, Takara). Reverse transcription of the mRNA was conducted with a reverse transcriptase (Super Script II Reverse Transcriptase; catalogue No. 18064-014, GibcoBRL) using fluorescence-labeled nucleotides to give cDNAs that were introduced with Cy3-dUTP or Cy5-dUTP during the reverse transcription.
The labeled cDNAs were dissolved in TE buffer (10 mM Tris-HCl/1 mM EDTA, pH 8.0), and the solution was dropped on the DNA chip containing the whole genes of yeast (DNA Chip Research Inc. Japan) so that the cDNAs were hybridized on the DNA chip at 65° C. for over 12 hours. The fluoresces intensity of the DNA chip was read with a scanner, and the ratio relative to the fluorescence intensity resulting from the absence of chemical substance was estimated as the following, which is shown in Tables 1 to 9.
In the Tables, “Intensity” indicated in the rightmost column is a value of the level of expressed mRNA of each gene in control cells as divided by the average level of the expressions of the whole genes. A gene of which mRNA level is lower in control, and is higher in cases of addition of chemical substance, is especially useful in the detection of toxic substances.
Here, when a ratio of an amount of mRNA expressed in the presence of the chemical substance to an amount of mRNA expressed in the absence of the chemical substance is two or more, then it is considered significant.

COc1cc(CNC(=O)CCCCC=CC(C)C)ccc1O [(12), 8-Methyl-N-vanillyl-6-nonenamide]
The level of expressed mRNA in the presence of chemical substance/The level of expressed mRNA in the absence of chemical substance (yeast gene YAL012W, metabolism protein genes): 1.1
The level of expressed mRNA in the presence of chemical substance/The level of expressed mRNA in the absence of chemical substance (yeast gene YAL034C, cultured two hours with substance): 2.8
The level of expressed mRNA in the presence of chemical substance/The level of expressed mRNA in the absence of chemical substance (yeast gene YAL053W, cultured two hours with substance): 0.6
The level of expressed mRNA in the presence of chemical substance/The level of expressed mRNA in the absence of chemical substance (yeast gene YAL054C): 1.0
The level of expressed mRNA in the presence of chemical substance/The level of expressed mRNA in the absence of chemical substance (yeast gene YAR028W, cultured two hours with substance): 0.8
The level of expressed mRNA in the presence of chemical substance/The level of expressed mRNA in the absence of chemical substance (yeast gene YBL001C): 0.7
The level of expressed mRNA in the presence of chemical substance/The level of expressed mRNA in the absence of chemical substance (yeast gene YBL048W, cultured two hours with substance): 1.2
The level of expressed mRNA in the presence of chemical substance/The level of expressed mRNA in the absence of chemical substance (yeast gene YBL107C, cultured two hours with substance): 1.4
The level of expressed mRNA in the presence of chemical substance/The level of expressed mRNA in the absence of chemical substance (yeast gene YBR072W (stress protein genes)): 16.3
The level of expressed mRNA in the presence of chemical substance/The level of expressed mRNA in the absence of chemical substance (yeast gene YBR203W, cultured two hours with substance): 1.6
The level of expressed mRNA in the presence of chemical substance/The level of expressed mRNA in the absence of chemical substance (yeast gene YBR222C): 0.9
The level of expressed mRNA in the presence of chemical substance/The level of expressed mRNA in the absence of chemical substance (yeast gene YBR256C): 1.7
The level of expressed mRNA in the presence of chemical substance/The level of expressed mRNA in the absence of chemical substance (yeast gene YBR273C, cultured two hours with substance): 0.8
The level of expressed mRNA in the presence of chemical substance/The level of expressed mRNA in the absence of chemical substance (yeast gene YCL009C): 1.7
The level of expressed mRNA in the presence of chemical substance/The level of expressed mRNA in the absence of chemical substance (yeast gene YCR037C): 0.7
The level of expressed mRNA in the presence of chemical substance/The level of expressed mRNA in the absence of chemical substance (yeast gene YCR048W): 0.9
The level of expressed mRNA in the presence of chemical substance/The level of expressed mRNA in the absence of chemical substance (yeast gene YDL072C, cultured two hours with substance): 1.2
The level of expressed mRNA in the presence of chemical substance/The level of expressed mRNA in the absence of chemical substance (yeast gene YDL110C, cultured two hours with substance): 1.5
The level of expressed mRNA in the presence of chemical substance/The level of expressed mRNA in the absence of chemical substance (yeast gene YDL174C, cultured for two hours with substance): 2.8
The level of expressed mRNA in the presence of chemical substance/The level of expressed mRNA in the absence of chemical substance (yeast gene YDL204W, cultured two hours with substance): 0.9
The level of expressed mRNA in the presence of chemical substance/The level of expressed mRNA in the absence of chemical substance (yeast gene YDL222C, cultured two hours with substance): 1.0
The level of expressed mRNA in the presence of chemical substance/The level of expressed mRNA in the absence of chemical substance (yeast gene YDR003W, cultured two hours with substance): 0.8
The level of expressed mRNA in the presence of chemical substance/The level of expressed mRNA in the absence of chemical substance (yeast gene YDR009W): 1.0
The level of expressed mRNA in the presence of chemical substance/The level of expressed mRNA in the absence of chemical substance (yeast gene YDR019C): 0.7
The level of expressed mRNA in the presence of chemical substance/The level of expressed mRNA in the absence of chemical substance (yeast gene YDR031W, cultured two hours with substance): 0.9
The level of expressed mRNA in the presence of chemical substance/The level of expressed mRNA in the absence of chemical substance (yeast gene YDR070C, cultured two hours with substance): 4.3
The level of expressed mRNA in the presence of chemical substance/The level of expressed mRNA in the absence of chemical substance (yeast gene YDR330W, cultured two hours with substance): 1.0
The level of expressed mRNA in the presence of chemical substance/The level of expressed mRNA in the absence of chemical substance (yeast gene YDR391C, cultured two hours with substance): 1.4
The level of expressed mRNA in the presence of chemical substance/The level of expressed mRNA in the absence of chemical substance (yeast gene YDR406W (transport facilitation protein gene)): 3.9
The level of expressed mRNA in the presence of chemical substance/The level of expressed mRNA in the absence of chemical substance (yeast gene YDR410C): 0.9
The level of expressed mRNA in the presence of chemical substance/The level of expressed mRNA in the absence of chemical substance (yeast gene YDR411C, cultured two hours with substance): 1.5
The level of expressed mRNA in the presence of chemical substance/The level of expressed mRNA in the absence of chemical substance (yeast gene YDR476C, cultured two hours with substance): 2.1
The level of expressed mRNA in the presence of chemical substance/The level of expressed mRNA in the absence of chemical substance (yeast gene YDR486C, cultured two hours with substance): 1.3
The level of expressed mRNA in the presence of chemical substance/The level of expressed mRNA in the absence of chemical substance (yeast gene YDR497C, metabolism protein genes): 0.9
The level of expressed mRNA in the presence of chemical substance/The level of expressed mRNA in the absence of chemical substance (yeast gene YDR511W, cultured two hours with substance): 0.8
The level of expressed mRNA in the presence of chemical substance/The level of expressed mRNA in the absence of chemical substance (yeast gene YDR534C, cultured two hours with substance): 1.5
The level of expressed mRNA in the presence of chemical substance/The level of expressed mRNA in the absence of chemical substance (yeast gene YDR545W, cultured two hours with substance): 0.9
The level of expressed mRNA in the presence of chemical substance/The level of expressed mRNA in the absence of chemical substance (yeast gene YEL001C, cultured two hours with substance): 1.1
The level of expressed mRNA in the presence of chemical substance/The level of expressed mRNA in the absence of chemical substance (yeast gene YER004W, cultured two hours with substance): 1.7
The level of expressed mRNA in the presence of chemical substance/The level of expressed mRNA in the absence of chemical substance (yeast gene YER026C): 1.7
The level of expressed mRNA in the presence of chemical substance/The level of expressed mRNA in the absence of chemical substance (yeast gene YER035W, cultured two hours with substance): 1.1
The level of expressed mRNA in the presence of chemical substance/The level of expressed mRNA in the absence of chemical substance (yeast gene YER038C, cultured two hours with substance): 0.9
The level of expressed mRNA in the presence of chemical substance/The level of expressed mRNA in the absence of chemical substance (yeast gene YER079W, cultured two hours with substance): 0.9
The level of expressed mRNA in the presence of chemical substance/The level of expressed mRNA in the absence of chemical substance (yeast gene YER096W, metabolism protein genes): 0.9
The level of expressed mRNA in the presence of chemical substance/The level of expressed mRNA in the absence of chemical substance (yeast gene YER106W, cultured two hours with substance): 0.9
The level of expressed mRNA in the presence of chemical substance/The level of expressed mRNA in the absence of chemical substance (yeast gene YER158C, cultured two hours with substance): 1.0
The level of expressed mRNA in the presence of chemical substance/The level of expressed mRNA in the absence of chemical substance (yeast gene YER163C, cultured two hours with substance): 1.0
The level of expressed mRNA in the presence of chemical substance/The level of expressed mRNA in the absence of chemical substance (yeast gene YER175C, cultured two hours with substance): 0.9
The level of expressed mRNA in the presence of chemical substance/The level of expressed mRNA in the absence of chemical substance (yeast gene YFL006W, cultured two hours with substance): 1.2
The level of expressed mRNA in the presence of chemical substance/The level of expressed mRNA in the absence of chemical substance (yeast gene YFL010C, cultured two hours with substance): 1.5
